Entries after “also recorded” stand apart in the source; their conditions may differ. Structures can show the parent of a compound that is named as a salt.
Tested on: Subjects with refractory solid tumors
Test: Phase I clinical trial, open-label, dose-escalating, multiple-dose, weekly intravenous administration (safety, tolerability)
Format: in vivo
Settings: human subjects
Description: An open-label, dose-escalating, multiple-dose study to define the safety, tolerability and phamacokinetics of weekly intravenous administration of (4-Methoxy-phenyl)-methyl-(2-methyl-quinazolin-4-yl)-amine hydrochloride was performed. A dosing schedule (each 4 week cycle) was performed for (4-Methoxy-phenyl)-methyl-(2-methyl-quinazolin-4-yl)-amine hydrochloride weekly for 3 weeks with no infusion on the fourth week of each cycle. Subjects with refractory solid tumors were enrolled in cohorts of 3. During Cycle 1, subjects were hospitalized during each infusion of (4-Methoxy-phenyl)-methyl-(2-methyl-quinazolin-4-yl)-amine hydrochloride and remained for observation and safety evaluation for approximately 24 hours following the end of the infusion. All subject had continuous telemetry for 2 hours prior to infusion, for 1-2 hour infusion and for 3 hours after the end of the infusion. Any clinically significant electrocardiographic (ECG) wave form abnormality was recorded and prolongation of the monitoring period extended at the discretion of the principal investigator.
Electrocardiograms were obtained prior to starting the infusion and within 30 minutes of the end of infusion for each infusion of the first cycle. Electrocardiograms on Day 1 were obtained in triplicate 5 minutes apart.
Neurocognitive assessments were made by administration of the Mini-Mental State Examination (MMSE), the Hopkins Verbal Learning and timed Grooved Pegboard tests before administration of the intravenous infusion and approximately 24 hours of the infusion at each weekly administration of the first cycle.
On days 1, 8, and 15 of each cycle, vital signs were obtained prior to the first dose, at 15, 30, and 60 minutes after the initiation of the infusion, and at 0.5, 1, 1.5, 2, and 4 hours after the end of the intravenous infusion. Vital signs at all time points beyond the start of the intravenous infusion included heart rate, blood pressure and respirations. Temperature was measured at the end of the infusion and 4 hours later.
Individual subjects were allowed to continue on repeated weekly ×3 administrations every 28 days with no dose increase provided there was no unacceptable toxicity or disease progression.
Tumor response was evaluated by response evaluation criteria in solid tumors (RECIST) criteria. To prevent sever hypersensitivity reactions due to Cremophor® EL, subjects were premedicated with oral dexamethasone (20 mg) administered approximately 12 and 6 hours before the intravenous infusion with (4-Methoxy-phenyl)-methyl-(2-methyl-quinazolin-4-yl)-amine hydrochloride, diphenhydramine (50 mg) or its equivalent administered intravenously 30-60 minutes before (4-Methoxy-phenyl)-methyl-(2-methyl-quinazolin-4-yl)-amine hydrochloride, and cimetidine (300 mg) or ranitidine (50 mg) administered intravenously 30-60 minutes before (4-Methoxy-phenyl)-methyl-(2-methyl-quinazolin-4-yl)-amine hydrochloride.

[1] = weekly i.v. infusion for 3 of 4 weeks, 0.3-3.3 mg/m^2
[2] = weekly i.v. infusion, 0.3-3.3 mg/m^2

COc1ccc(N(C)c2nc(C)nc3ccccc23)cc1 [(4-Methoxy-phenyl)-methyl-(2-methyl-quinazolin-4-yl)-amine hydrochloride]
effects on cardiac conduction (PR, QRS or QTc) (ECG before and within 30 minutes of end of infusion, 0.3-3.3 mg/m^2): no significant effects on cardiac conduction
overall safety and tolerability (weekly i.v. administration, various dosages, hydrochloride): safe and well tolerated in human subjects at various dosages; also recorded: safe and tolerable
dose limiting toxicity [1]: vascular in nature, manifested by an acute coronary syndrome
intratumor bleeding [1]: incidences of intratumor bleeding
peripheral cytotoxicity [1]: no evidence of cytotoxity peripherally at the administered doses
bradycardia [2]: occasional episodes of bradycardia
systolic blood pressure [2]: dose-related increase in systolic blood pressure

From patent US20100087458A1, “METHOD OF TREATING MELANOMA” (Myriad Pharmaceuticals, Inc., priority 2007, published 2010)
